{
  "source": "patent US20050203013A1",
  "about": "“Methods for inhibiting vascular permeability” (priority 2002, published 2005)",
  "key": {"U87 glioblastoma cells": {"tested_on": "U87 glioblastoma cells", "assay": "Cell proliferation assay, U87", "type": "cell-based, human", "settings": "72 hours", "procedure": "HMVEC-d cells were trypsinized (0.05% trypsin) and resuspended (15,000 cells/ml) in EBM-2 supplemented with 5% fetal bovine serum (FBS), plated onto gelatinized 24-well culture plates (0.5 ml/well), and incubated for 24 hours (37° C., 5% CO2). The media was replaced with 0.5 ml of complete media (serum and growth factors; EGM-2 MV), and test substances were applied. Cells were challenged with free or conjugated TNP-470 (0.01 pg/ml to 1 mg/ml TNP-470-equivalent concentration). Control cells were grown with or without growth factors. U87 glioblastoma cells were washed with PBS, trypsinized and resuspended (5,000 cells/ml) in DMEM supplemented with 10% FBS, plated onto 24-well culture plates (0.5 ml/well), and incubated for 24 hours (37° C., 5% CO2). The media was replaced with 0.5 ml of DMEM and 10% FBS, and the test sample applied. Cells were challenged with free or conjugated TNP-470 (0.01 pg/ml to 1 mg/ml TNP-470-equivalent concentration). Control cells were grown with or without 10% FBS. Both cell types were incubated for 72 hours, followed by trypsinization, resuspension in Hematall (Fisher Scientific, Pittsburgh, Pa.), and counted in a Coulter counter."}, "MAPK": {"tested_on": "MAPK", "assay": "Phosphorylation of MAPK", "type": "cell-based, Human", "settings": "HMVEC-d", "procedure": "Serum-starved HMVEC-d were treated with 5 ng/ml TNP-470 at 37° C. for 2 hours, and then stimulated with 10 ng/ml of VEGF for 5 minutes. Stimulation was stopped by adding cold PBS. Cells were lysed with cold radioimmune precipitation buffer. Cellular extracts (20 μg) were immunoblotted with an antibody against phosphorylated MAPK (p-MAPK) (Cell Signaling Technology Inc.). The blot was stripped and reprobed with an antibody against MAPK to confirm equal protein loading."}, "[1]": {"tested_on": "A2058 human melanoma tumor vessel permeability", "assay": "Miles assay on tumor-bearing mice (Example 2)", "type": "in vivo, SCID mice", "settings": "30 mg/kg/day for three days", "procedure": "One of the problems with angiogenesis-dependent diseases is increased vessel permeability (due to high levels of VPF) which results in edema and loss of proteins. A decrease in vessel permeability is beneficial in those diseases. We have found, using the Miles assay ([…], et al., Cancer Res, 56:172-181 (1996)), that free and bound TNP-470 block permeability. Briefly, a dye, Evans Blue (1% in PBS), was injected i.v. to anesthesized mice. After 10 min, human recombinant VEGF165 (50 ng/50 μl) was injected intradermally into the back skin. Leakage of protein-bound dye was detected as blue spots on the underside of the back skin surrounding the injection site. After 20 min mice were euthanized. Then, the skin was excised, left in formamide for 5 days to be extracted and the solution read at 620 nm. Putative angiogenesis inhibitors such as free and conjugated TNP-470 were injected daily 3 days (30 mg/kg/day) prior to the VEGF challenge. The same was repeated on tumor-bearing mice to evaluate the effect of angiogenesis inhibitors on tumor vessel permeability."}, "BCE cells": {"tested_on": "BCE cells", "assay": "Junction protein staining of BCE cells treated with TNP-470", "type": "cell-based, Bovine", "settings": "3 days in culture, stimulated by VEGF or PAF", "procedure": "BCE cells were grown on a coverslip glass in a 24-well plate (200,000 cells/well) in DMEM+10% BCS+3 ng/ml bFGF. Cells were treated with TNP-470 for 3 days in culture. Cells were stimulated with VEGF (5 ng/ml) or PAF (100 nM) for 20 min. Cells were stained for occludin, claudin, ZO-1, beta-catenin and VE-cadherin with fluorescent antibodies."}, "VEGFR-2": {"tested_on": "VEGFR-2", "assay": "VEGFR-2 phosphorylation in HMVEC-d", "type": "cell-based, Human", "settings": "5 ng/ml for 2 hours", "procedure": "Serum-starved (0.1% FBS in EBM-2 media for 24 hours) HMVEC-d or HUVEC were treated with 5 ng/ml TNP-470 and HPMA copolymer-TNP-470 at 37° C. for 2 hours, and then stimulated with 10 ng/ml of VEGF for 5 minutes. Stimulation was stopped by adding cold PBS. […] After washing the beads with precipitation buffer, immunoprecipitates were resuspended in 2× SDS sample buffer for Western blot analysis with an antibody against phosphorylated tyrosine (pTyr)."}, "[2]": {"tested_on": "Bovine adrenal capillary endothelial cells", "assay": "BCE proliferation assay", "type": "cell-based", "settings": "challenged with bFGF, 72 h", "procedure": "Bovine adrenal capillary endothelial cells were seeded on gelatinized plates (15,000/well). Following 24 h incubation, cells were challenged with free and conjugated TNP-470, and bFGF (1 ng/ml) was added to the medium. Cells were counted after 72 h."}, "ear swelling": {"tested_on": "ear swelling", "assay": "Delayed-type hypersensitivity reaction elicited by oxazolone", "type": "in vivo, C57B1/6J mice", "procedure": "Delayed-type hypersensitivity (DTH) reactions were induced in the skin of 8-week-old C57B1/6J male mice (n=5) as previously described (Dvorak et al., 1984). In order to induce an immune response to oxazolone, mice were first sensitized by topical application of 2% oxazolone solution in vehicle, acetone: olive oil (4:1 vol/vol), to the shaved abdomen (50 μl) and to each paw (5 μl). Mice were treated with TNP-470 (30 mg/kg s.c.) for three days prior to the second challenge with oxazolone. Five days after sensitization, the right ears were challenged by topical application of 10 μl of a 1% oxazolone solution; the left ears were treated with vehicle alone. Ear thickness was then measured daily for up to 7 days as a measure of inflammation intensity (Gad et al., 1986). Statistical analysis was performed using the unpaired Student t test. Some mice from each experimental group were euthanized 24 hours after oxazolone challenge (n=5 per group). One half of each ear was fixed in 10% formalin and was processed, embedded in paraffin and stained for H & E. The other half was embedded in OCT compound (Sakura Finetek, Torrance, Calif.) and snap-frozen in liquid nitrogen. Immunohistochemical staining was performed on 5 μm cryostat sections using a Vecstatin avidin-biotin detection system (Vector Labs, Burlingame, Calif.) with rat monoclonal antibodies against mouse CD31 (dilution 1:250, Pharmingen, San Diego, Calif.) according to the manufacturers' instructions."}},
  "data": [
    {"smiles": "CO[C@@H]1[C@H](OC(=O)NC(=O)CCl)CC[C@]2(CO2)[C@H]1[C@@]1(C)O[C@@H]1CC=C(C)C", "note": "[TNP-470]", "values": [
      {"measurement": "concentration inhibiting serum-induced proliferation (cytostatic effect)", "setting": "U87 glioblastoma cells; U87 glioblastoma cells", "result": "higher than 10 ng/ml"},
      {"measurement": "cytotoxic concentration", "setting": "U87 glioblastoma cells; U87 tumor cells", "result": "higher than 100 μg/ml"},
      {"measurement": "VPF/VEGF-induced MAPK phosphorylation", "setting": "MAPK", "result": "inhibited"},
      {"measurement": "tumor vessel permeability", "setting": "[1]", "result": "decreased"},
      {"measurement": "effect on occludin, claudin, ZO-1, beta-catenin or VE-cadherin", "setting": "BCE cells", "result": "did not see any significant and reproducible effect"},
      {"measurement": "VPF/VEGF-induced phosphorylation of VEGFR-2", "setting": "VEGFR-2", "result": "significantly reduced"},
      {"measurement": "BCE cell growth", "setting": "[2]", "result": "inhibited"},
      {"measurement": "inflammatory response (histology)", "setting": "ear swelling; 24 hours after challenge", "result": "dramatically reduced"},
      {"measurement": "ear swelling and erythema vs control mice", "setting": "ear swelling; 24 hours after oxazolone challenge, P<0.01", "result": "significantly reduced ear swelling and erythema"},
      {"measurement": "difference in ear swelling vs control mice", "setting": "ear swelling; 48 hours, P<0.01", "result": "persisted"},
      {"measurement": "difference in ear swelling vs control mice", "setting": "ear swelling; 4 days", "result": "differences had disappeared"}
    ]}
  ]
}
